Among the data in US9469615B2, “Quinoxalines and AZA-quinoxalines as CRTH2 receptor modulators” (Merck Sharp & Dohme Corp., priority 2010, dated 2016) are Ki values, retold here.

A word on the Ki: it is a dissociation constant, usually derived from enzyme kinetics or from competition with a known ligand.

One assay deals with T1, hCRTH2 (Homo sapiens, UniProt Q9Y5Y4).
T1 construct: expressed in transfected cells; host or cells: HEK (human embryonic kidney) cells expressing hCRTH2; membrane preparation
T1 sequence (Q9Y5Y4 1-395): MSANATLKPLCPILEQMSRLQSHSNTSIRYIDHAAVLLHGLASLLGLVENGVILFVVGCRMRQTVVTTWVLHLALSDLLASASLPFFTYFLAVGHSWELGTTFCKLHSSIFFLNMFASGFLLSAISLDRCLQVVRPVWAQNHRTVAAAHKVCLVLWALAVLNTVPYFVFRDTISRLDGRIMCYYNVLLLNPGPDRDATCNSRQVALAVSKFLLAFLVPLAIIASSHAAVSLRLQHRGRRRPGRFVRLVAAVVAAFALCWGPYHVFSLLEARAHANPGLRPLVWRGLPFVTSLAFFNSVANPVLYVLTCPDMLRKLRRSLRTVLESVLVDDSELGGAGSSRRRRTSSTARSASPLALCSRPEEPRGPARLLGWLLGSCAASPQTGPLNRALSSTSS
In words: Radioligand binding assay ([3H]PGD2 competition, HEK-hCRTH2 membranes). To be noted: [3H]PGD2 binding, rated A-E (Table A). As to the method:
Biological Assays Radioligand Binding Assay.
Radioligand binding assays were performed at room temperature in 50 mM Tris-HCl pH 7.4, 1 mM EDTA containing 2 mM MnCl2 and 3.0 nM [^3H]PGD2 (New England Nuclear, Boston, Mass.) (171 Ci mmol^−1), in a final volume of 0.2 mL. Competing ligands were diluted in dimethylsulfoxide (Me2SO) that was kept constant at 1% (v/v) of the final incubation volume. The reaction was initiated by the addition of 8-20 μg of membrane protein prepared from a human embryonic kidney (HEK)-hCRTH2 cell line. Total and non-specific binding were determined in the absence and the presence of 10 μM PGD2, respectively. […] The reaction was routinely conducted for 60 min at room temperature and terminated by rapid filtration through prewetted (0.3% polyethyleneimine) 96-well printed Filtermate™ (Wallac) using a Tomtec® harvester (Hamden, Conn.). After washing with cold buffer, the filter was dried for 2 minutes in microwave, and Meltilex Scintillator sheet (Wallac) was melted on for 2 min. The radioactivity was measured with Betaplate model 1205 (Wallac).
For the compound `C[C@@H](NC(=O)c1ccc2nc(-c3ccc(Cl)cc3)c(CC3CCC(C(=O)O)C3)nc2c1)c1ccc(F)cc1` (mixture of isomers) [compound 28, 3-((3-(4-chlorophenyl)-7-((R)-1-(4-fluorophenyl)ethylcarbamoyl)quinoxalin-2-yl)methyl)cyclopentanecarboxylic acid], the inhibitory constant (Ki) lay in the range of 2.1 to 20 nM.
Same read-out and setting: next, `O=C(N[C@@H]1CCCc2ccccc21)c1ccc2nc(-c3ccccc3)c(CCCC(F)C(=O)O)nc2c1` (mixture of isomers) [compound 38, 2-fluoro-5-(3-phenyl-7-(((R)-1,2,3,4-tetrahydronaphthalen-1-yl)carbamoyl)quinoxalin-2-yl)pentanoic acid]: 20.1 to 200 nM.
`CC(NC(=O)c1ccc2nc(-c3ccc(C(F)(F)F)cc3)c(CCCCC(=O)O)nc2c1)c1ccc(-c2ccccc2)cc1` (racemic) [4E, 7-[[(1-[1,1′-biphenyl]-4-ylethyl)amino]carbonyl]-3-[4-(trifluoromethyl)-phenyl]-2-quinoxaline-pentanoic acid] registered an inhibitory constant (Ki) of 0.1 to 2 nM.
Consider `CC(NC(=O)c1ccc2nc(-c3ccc(C(F)(F)F)cc3)c(CCCCC(=O)O)nc2c1)c1ccc(-c2ccccc2)cc1` (single isomer, unassigned) [4F, 7-[[(1-[1,1′-biphenyl]-4-ylethyl)amino]carbonyl]-3-[4-(trifluoromethyl)-phenyl]-2-quinoxaline-pentanoic acid], for which the inhibition constant (Ki) was 2.1 to 20 nM.
The same measure, in the same setting: next, `CC(NC(=O)c1ccc2nc(-c3ccc(C(F)(F)F)cc3)c(CCCCC(=O)O)nc2c1)c1ccc(-c2ccccc2)cc1` (single isomer, unassigned) [4G, 7-[[(1-[1,1′-biphenyl]-4-ylethyl)amino]carbonyl]-3-[4-(trifluoromethyl)-phenyl]-2-quinoxaline-pentanoic acid]: 2.1 to 20 nM; `O=C(O)C1CC1CCc1nc2cc(C(=O)N3CCC(c4ccccc4)CC3)ccc2nc1-c1ccccc1` (single isomer, unassigned) [20F, 2-(2-(3-phenyl-7-(4-phenylpiperidine-1-carbonyl)quinoxaline-2-yl)ethyl)cyclopropanecarboxylic acid]: 2.1 to 20 nM; `O=C(O)C1CC1CCc1nc2cc(C(=O)N3CCC(c4ccccc4)CC3)ccc2nc1-c1ccccc1` (single isomer, unassigned) [20G, 2-(2-(3-phenyl-7-(4-phenylpiperidine-1-carbonyl)quinoxaline-2-yl)ethyl)cyclopropanecarboxylic acid]: 2.1 to 20 nM.
Same read-out and setting: for `O=C(O)C1CC1CCc1nc2cc(C(=O)N3CCC(c4ccccc4)CC3)ccc2nc1-c1ccccc1` (single isomer, unassigned) [20H, 2-(2-(3-phenyl-7-(4-phenylpiperidine-1-carbonyl)quinoxaline-2-yl)ethyl)cyclopropanecarboxylic acid] the value was 2.1 to 20 nM.
As to `O=C(N[C@@H]1CCCc2ccccc21)c1ccc2nc(-c3ccccc3)c(CCCC(F)C(=O)O)nc2c1` (single isomer, unassigned) [38A], the inhibition constant Ki was 20.1 to 200 nM.
Still for that read-out and setting: next, `O=C(N[C@@H]1CCCc2ccccc21)c1ccc2nc(-c3ccccc3)c(CCCC(F)C(=O)O)nc2c1` (single isomer, unassigned) [38B]: 20.1 to 200 nM; `O=C(O)C1CC1CCc1nc2cc(C(=O)N3CCC(c4ccccc4)CC3)ccc2nc1-c1ccccc1` (single isomer, unassigned) [compound 20, 2-(2-(3-phenyl-7-(4-phenylpiperidine-1-carbonyl)quinoxaline-2-yl)ethyl)cyclopropanecarboxylic acid]: 20.1 to 200 nM; `CC(NC(=O)c1ccc2nc(-c3ccc(Cl)cc3)c(CCCCC(=O)O)nc2c1)c1ccccn1` (stereo in doubt) [16AA, 3-(4-chlorophenyl)-7-[[[1(S)-(2-pyridinyl)ethyl]amino]carbonyl]-2-quinoxalinepentanoic acid]: 0.1 to 2 nM.
The same measure, in the same setting: next, `O=C(O)CCCCc1nc2cc(C(=O)N3CCC(c4ccccc4)C3)ccc2nc1-c1ccc(C(F)(F)F)cc1` (stereo in doubt) [compound 152, 7-[(3R)-phenyl-1-pyrrolidinyl)carbonyl]-3-[4-(trifluoromethyl)phenyl]-2-quinoxalinepentanoic acid]: 2.1 to 20 nM; `O=C(O)CCCCc1nc2cc(C(=O)N3CCC(c4ccccc4)C3)ccc2nc1-c1ccc(C(F)(F)F)cc1` (stereo in doubt) [compound 153, 7-[(3(S)-phenyl-1-pyrrolidinyl]carbonyl]-3-[4-(trifluoromethyl)phenyl]-2-quinoxalinepentanoic acid]: 0.1 to 2 nM.
Compound `CC(NC(=O)c1ccc2nc(-c3ccc(C(F)(F)F)cc3)c(CCCCC(=O)O)nc2c1)c1ccncc1` (stereo not shown) [3AA, 7-[[[1-(4-pyridinyl)ethyl]-amino]carbonyl]-3-[4-(trifluoromethyl)-phenyl]-2-quinoxaline-pentanoic acid] came in with a Ki of 2.1 to 20 nM.
Still for that read-out and setting: next, `CC(NC(=O)c1ccc2nc(-c3ccc(C(F)(F)F)cc3)c(CCCCC(=O)O)nc2c1)c1ccccn1` (stereo not shown) [3AB, 7-[[[1-(2-pyridinyl)ethyl]-amino]carbonyl]-3-[4-(trifluoromethyl)phenyl]-2-quinoxalinepentanoic acid]: 2.1 to 20 nM.
On the same count and under the same terms, for `O=C(O)CCCCc1nc2cc(C(=O)NCc3ccncc3)ccc2nc1-c1ccc(C(F)(F)F)cc1` [3AC, 7-[[(4-pyridinylmethyl)-amino]carbonyl]-3-[4-(trifluoromethyl)phenyl]-2-quinoxalinepentanoic acid] the value was 2.1 to 20 nM.
`O=C(O)CCCCc1nc2cc(C(=O)NCc3cccnc3)ccc2nc1-c1ccc(C(F)(F)F)cc1` [3AD] showed a Ki of 2.1 to 20 nM.
The compound `O=C(O)CCCCc1nc2cc(C(=O)NCc3ccccn3)ccc2nc1-c1ccc(C(F)(F)F)cc1` [3AE, 7-[[(2-pyridinylmethyl)-amino]carbonyl]-3-[4-(trifluoromethyl)phenyl]-2-quinoxalinepentanoic acid] came in with a Ki of 2.1 to 20 nM.
The same measure, in the same setting: for `O=C(O)CCCCc1nc2cc(C(=O)NCc3ccc(C(F)(F)F)nc3)ccc2nc1-c1ccc(C(F)(F)F)cc1` [3AF, 3-[4-(trifluoromethyl)phenyl]-7-[[[[6-(trifluoromethyl)-3-pyridinyl]methyl]amino]-carbonyl]-2-quinoxaline-pentanoic acid] the value was 2.1 to 20 nM; for `COC(=O)c1ccc2nc(-c3ccc(C(F)(F)F)cc3)c(CCCCC(=O)O)nc2c1` [3AG, 7-(methoxycarbonyl)-3-[4-(trifluoromethyl)phenyl]-2-quinoxalinepentanoic acid], 2.1 to 20 nM.
`O=C(O)CCCCc1nc2cc(C(=O)Nc3ccc(F)cc3)ccc2nc1-c1cccc(F)c1` [3T, 3-(3-fluorophenyl)-7-[[(4-fluorophenyl)amino]carbonyl]-2-quinoxalinepentanoic acid] registered a Ki of 20.1 to 200 nM.
Same read-out and setting: for `O=C(O)CCCCc1nc2cc(C(=O)Nc3cccc(F)c3)ccc2nc1-c1cccc(F)c1` [3U, 3-(3-fluorophenyl)-7-[[(3-fluorophenyl)amino]carbonyl]-2-quinoxalinepentanoic acid] the value was 20.1 to 200 nM.
In turn, `O=C(O)CCCCc1nc2cc(C(=O)Nc3ccccc3F)ccc2nc1-c1cccc(F)c1` [3V, 3-(3-fluoropheny)-7-[[(2-fluorophenyl)amino]carbonyl]-2-quinoxalinepentanoic acid] had a Ki of 201 to 700 nM.
For the compound `C[C@H](NC(=O)c1ccc2nc(-c3ccc(C(F)(F)F)cc3)c(CCCCC(=O)O)nc2c1)c1ccccc1` [3W, 7-[[(1-(S)-phenylethyl)amino]carbonyl]-3-[4-(trifluoromethyl)phenyl]-2-quinoxalinepentanoic acid], the inhibition constant Ki was in the range of 2.1 to 20 nM.
Same read-out and setting: for `C[C@@H](NC(=O)c1ccc2nc(-c3ccc(C(F)(F)F)cc3)c(CCCCC(=O)O)nc2c1)c1ccccc1` [3X, 7-[[(1-(R)-phenylethyl)amino]carbonyl]-3-[4-(trifluoromethyl)phenyl]-2-quinoxalinepentanoic acid] the value was 2.1 to 20 nM; for `O=C(O)CCCCc1nc2cc(C(=O)N3CCN(c4ccccc4)CC3)ccc2nc1-c1ccc(C(F)(F)F)cc1` [3Y, 7-[(4-phenyl-1-piperazinyl)carbonyl]-3-[4-(trifluoromethyl)phenyl]-2-quinoxalinepentanoic acid], 0.1 to 2 nM; for `O=C(O)CCCCc1nc2cc(C(=O)C3CC3)ccc2nc1-c1ccc(C(F)(F)F)cc1` [3Z, 7-(cyclopropylcarbonyl)-3-[4-(trifluoromethyl)phenyl]-2-quinoxalinepentanoic acid], 0.1 to 2 nM.
The same measure, in the same setting: next, `C[C@@H](NC(=O)c1ccc2nc(-c3ccc(C(F)(F)F)cc3)c(CCCCC(=O)O)nc2c1)c1cccc(-c2ccccc2)c1` [4D, 7-[[[1-(R)-[1,1′-biphenyl]-3-ylethyl]amino]carbonyl]-3-[4-(trifluoromethyl)-phenyl]-2-quinoxaline-pentanoic acid]: 20.1 to 200 nM.
The compound `O=C(O)CCCCc1nc2cc(C(=O)c3ccccc3)ccc2nc1-c1ccc(F)cc1` [5G] came in with a Ki of 0.1 to 2 nM.

Still in this assay, the particulars now being: [3H]PGD2 binding, values in text.
The compound `O=C(O)CCCCc1nc2cc(C(=O)N3CCC(c4ccccc4)C3)ccc2nc1-c1ccc(C(F)(F)F)cc1` (stereo in doubt) [compound 152, 7-[(3R)-phenyl-1-pyrrolidinyl)carbonyl]-3-[4-(trifluoromethyl)phenyl]-2-quinoxalinepentanoic acid] came in with a Ki of 2.9 nM.
